Experimental data from patent US12605397B2, “Deoxy-cytidine or uridine derivatives for use in cancer therapies” (HEMISPHERIAN AS, priority 2019, dated 2026).
Like-named read-outs stand apart in the source and are kept apart here.

Assays:
[1] = test system: SF-188 grade IV glioma cells; assay: Apoptosis flow cytometry (Annexin V / 7AAD); format: cell-based, human; conditions: SF-188 cells, 100 μM, 72 hours
Protocol: 100,000 cells were seeded in a 6-well plate and incubated with 100 μM of Temozolomide, 2′-Deoxy-5-hydroxymethylcytidine, 5-Formyl-2′-deoxycytidine or DMSO for 72 hours. Detection of apoptotic cells was assessed using Annexin V-7-amino-actinomycin D (7-AAD) Apoptotic Detection Kit (Nordic Biosite AS, Cat. Nr. 640922) according to manufacturer's protocol.
Fluorescence-activated cell sorting analysis was performed on LSR Fortessa (BD Biosciences) and data were analyzed on FlowJo software. All experiments were performed in triplicates.
It was therefore evaluated whether 5-formyl-2′deoxycytidine and 5-hydroxymethyl-2′-deoxycytidine were killing sensitive cells or causing them to be delayed in the cell cycle. SF-188 grade IV glioma cells were treated either with DMSO, temozolomide, 5-formyl-2′-deoxycytidine, or 5-hydroxymethyl-2′-deoxycytidine at the indicated concentration. […] A majority of SF-188 cells treated with 5-formyl-2′-deoxycytidine or 5-hydroxymethyl-2′-deoxycytidine were dead according to the flow cytometry profile (FIG. 2A).

A549 cells = assay: Survival assay (MTT), A549; format: cell-based, human; conditions: Homo sapiens
Protocol: (§1) Cells were passed between 70 and 90% confluence.
(§2) Cells were incubated with the drugs for 72 hours.

HAP1 cells = assay: Survival assay (MTT), HAP1; format: cell-based, human
Protocol: as §2

DIPG007 cells = assay: Survival assay (MTT), DIPG007; format: cell-based, human; conditions: Homo sapiens, DIPG007, Glioma, Grade IV, 72 hours
Protocol: as §1, §2

Buffy C cells = assay: Survival assay (MTT), Buffy C; format: cell-based, human; conditions: Homo sapiens, Normal, Bone Marrow, 72 hours
Protocol: as §1, §2
(§3) The present inventors further investigated the extent to which these compounds kill normal human cells; low cytotoxicity against normal human cells is advantageous property for anti-cancer agents. The cytotoxicity of these compounds in various normal human cell lines was therefore investigated (Table 3). Cells were grown and the survival assay was performed as described above (Materials and Methods).

U2OS cells = assay: Survival assay (MTT), U2OS; format: cell-based, human; conditions: Homo sapiens
Protocol: as §1, §2

A375 cells = assay: Survival assay (MTT), A375; format: cell-based, human; conditions: Homo sapiens, A-375
Protocol: as §1, §2

SF188 cells = assay: Survival assay (MTT), SF188; format: cell-based, human; conditions: Homo sapiens, SF-188, SF188, Glioma, Grade IV, 72 hours
Protocol: as §1, §2

MRC5 cells = assay: Survival assay (MTT), MRC5; format: cell-based, human; conditions: Homo sapiens
Protocol: as §1, §2, §3

[2] = mouse, in vivo, ip
Protocol: 5-hydroxymethyl-2′-deoxycytidine and 5-formyl-2′-deoxycytidine (Berry and Associates), were formulated in dimethyl sulfoxide (DMSO)/Solutol (RTM) R HS15/phosphate buffered saline (PBS) (5/5/90, v/v/v) at the concentration of 30 and 200 and 400 mg/mL for IP administration at the dosing volume of […]. A dosing volume at 10 or 20 ml/kg was applied.
Male ICR mice weighing 23±3 g were provided by BioLasco Taiwan (under Charles River Laboratories Licensee). […] All animals were maintained in a hygienic environment with controlled temperature (20-24° C.), humidity (30%-70%) and 12 hours light/dark cycles. Free access to sterilized standard lab diet [MFG (Oriental Yeast Co., Ltd., Japan)] and autoclaved tap water were granted.
5-hydroxymethyl-2′-deoxycytidine and 5-formyl-2′-deoxycytidine were administered IP to groups of three male ICR mice weighing 23±3 g. Animals received an initial dose of 300 mg/kg. If the animals survived for 72 hours, the dose for the next cohort was increased. If one or more animals died, the dose for the next cohort was decreased. The testing stopped when all animals survived at the upper bound, or when three dose levels had been tested or when the upper or lower bound had been reached. […] Body weights were recorded pre-dose and at 72 hours. […] Gross necropsy was performed on all animals without tissue collection, and the next dose level was determined based on the study design table.
The maximum tolerated dose (MTD) of these compounds in mice was determined as described above (Materials and Methods). […] While the end-point of the study was survival after 72 hours, the presence of acute toxic symptoms (mortality, convulsions, tremors, muscle relaxation, sedation, etc.) and autonomic effects (diarrhea, salivation, lacrimation, vasodilation, piloerection, etc.) in the animals was monitored during the first 30 minutes, and again at 1, 24, 48 and 72 hours. Body weights were recorded pre-dose and at 72 hours.

CB152 cells = assay: Survival assay (MTT), CB152; format: cell-based, human; conditions: Homo sapiens, CB152, Glioma, Grade IV, 72 hours
Protocol: as §1, §2

G166 cells = assay: Survival assay (MTT), G166; format: cell-based, human; conditions: Homo sapiens, G166, Glioma, Grade IV, 72 hours
Protocol: Primary glioma neural stem (GNS) cells (G7, G14, G144, G166) were cultured on poly-D-lysine (Merck Millipore, Cat. Nr. A-003-E) and laminin (R&D Systems, Cat.Nr. 3446-005-01) coated plates in neural stem cell medium (50% DMEM-F12 (Thermofisher, Cat. Nr. 21041025), 50% neurobasal medium (Thermofisher, Cat. Nr. 10888-022), N2 (Life Technologies, Cat. Nr. A-003-E) and B27 supplements (Life Technologies, Cat.Nr. 12587010), 1 mM sodium pyruvate (Life Technologies, Cat.Nr. 11360-039), 2 mM glutamax (Life Technologies, Cat. Nr. 35050038), 1 mM HEPES (Fisher Scientific, Cat. Nr. BP299-1), 0.1 mM β-mercaptoethanol (Life Technologies, Cat. Nr. 31350010), 1× nonessential amino acids (Life Technologies, Cat. Nr. 11140-035), 0.006% bovine serum albumin (Sigma, Cat. Nr. A8577-10ML), 4 μg/ml heparin (Sigma, Cat. Nr. H3149-25KU), 100 U/ml penicillin, 100 μg/ml streptomycin, 20 ng/ml hEGF (R&D Systems, Cat. Nr. 236-EG-200), 10 ng/ml bFGF (Peprotech, Cat. Nr. 100-18B).
as §2

[3] = test system: normal (non-cancerous) human cell lines; assay: Survival assay, panel of normal (non-cancerous) human cell lines; format: cell-based; conditions: normal human cell lines of Table 3
Protocol: as §2, §3

[4] = A549, 72 h, A549, Lung Carcinoma, 72 hours, MTT
[5] = A549, A549, Tables 6 and 7, unit inferred
[6] = Homo sapiens, HAP1, HAP1, Tables 6 and 7, unit inferred
[7] = Bone Osteoscarcoma, 72 hours, MTT
[8] = A375, Malignant Melanoma, 72 hours, MTT
[9] = A375, Tables 6 and 7, unit inferred
[10] = MRC5, 72 h, MRC5, Normal, Lung, 72 hours, MTT
[11] = MRC5, MRC5, Tables 6 and 7, unit inferred

Nc1nc(=O)n([C@H]2C[C@H](O)[C@@H](CO)O2)cc1C=O [2d5fC, 5-formyl-2′-deoxycytidine]
dead cells by flow cytometry (Annexin V, 7AAD) [1]: dead and not arrested at a cell cycle checkpoint | IC50 (A549 cells; [4]): > 25 µM | IC50 (A549 cells; [5]): ≥ 25 µM | IC50 (HAP1 cells; Homo sapiens, HAP1, 72 h, HAP1, Chronic Myelogenous Leukemia (CML), 72 hours, MTT): > 25 µM | IC50 (HAP1 cells; [6]): ≥ 25 µM | IC50 (DIPG007 cells): > 100 µM | IC50 (Buffy C cells): > 25 µM | IC50 (U2OS cells; [7]): 8.69 µM | IC50 (U2OS cells; Tables 6 and 7, unit inferred): 8.69 µM | IC50 (A375 cells; [8]): 3.19 µM | IC50 (A375 cells; [9]): 3.19 µM | IC50 (SF188 cells): 28.2 µM | IC50 (MRC5 cells; [10]): > 25 µM | IC50 (MRC5 cells; [11]): ≥ 25 µM | tolerability of a single dose ([2]; 300 mg/kg): can tolerate | tolerability of a single dose ([2]; 2000 mg/kg): can tolerate | tolerability of a single dose ([2]; 8000 mg/kg): unable to tolerate | IC50 (CB152 cells): > 100 µM | IC50 (G166 cells): > 100 µM | cytotoxicity to normal cell lines [3]: cytotoxic only to one normal human cell line

Nc1nc(=O)n([C@H]2C[C@H](O)[C@@H](CO)O2)cc1CO [2d5hmC, 5-hydroxymethyl-2′-deoxycytidine]
dead cells by flow cytometry (Annexin V, 7AAD) [1]: dead and not arrested at a cell cycle checkpoint | IC50 (A549 cells; [4]): > 25 µM | IC50 (A549 cells; [5]): ≥ 25 µM | IC50 (HAP1 cells; HAP1, Chronic Myelogenous Leukemia (CML), 72 hours, MTT): > 3.03 µM | IC50 (HAP1 cells; [6]): 6.53 µM | IC50 (DIPG007 cells): > 100 µM | IC50 (Buffy C cells): > 25 µM | IC50 (U2OS cells; [7]): > 25 µM | IC50 (U2OS cells; Tables 6 and 7, unit inferred): ≥ 25 µM | IC50 (A375 cells; [8]): > 25 µM | IC50 (A375 cells; [9]): ≥ 25 µM | IC50 (SF188 cells): 8.97 µM | IC50 (MRC5 cells; [10]): > 25 µM | IC50 (MRC5 cells; [11]): ≥ 25 µM | tolerability of a single dose ([2]; 300 mg/kg): can tolerate | tolerability of a single dose ([2]; 2000 mg/kg): can tolerate | tolerability of a single dose ([2]; 8000 mg/kg): unable to tolerate | IC50 (CB152 cells): > 100 µM | IC50 (G166 cells): > 100 µM | cytotoxicity to normal cell lines [3]: not cytotoxic to any of the normal cell lines evaluated

Cn1nnc2c(C(N)=O)ncn2c1=O [Temozolomide, 4-methyl-5-oxo-2,3,4,6,8-pentazabicyclo[4.3.0]nona-2,7,9-triene-9-carboxamide, reference compound]
dead cells by flow cytometry (Annexin V, 7AAD) [1]: slight increase in the amount of dead cells | IC50 (A549 cells; [4]): 1.02 µM | IC50 (DIPG007 cells): > 100 µM | IC50 (U2OS cells; [7]): > 25 µM | IC50 (A375 cells; [8]): > 25 µM | IC50 (SF188 cells): > 100 µM | IC50 (MRC5 cells; [10]): > 25 µM | IC50 (CB152 cells): > 100 µM | IC50 (G166 cells): > 100 µM
